Measurements reported in ChEMBL document CHEMBL1130794, “Phthalimidomethyl as a drug pro-moiety. Probing its reactivity” (Bioorg Med Chem Lett, 1998).

Assay: Second-order rate constant for the alkaline hydrolysis was determined
Assay type: ADME

Point of comparison: `O=C(OCN1C(=O)c2ccc([N+](=O)[O-])cc2C1=O)c1ccccc1`, kHO 559 M⁻¹ s⁻¹. Against it:
- CN1C(=O)c2ccccc2C1=O — 15-fold lower, 37.5 M⁻¹ s⁻¹
- Cc1ccc2c(c1)C(=O)N(COC(=O)c1ccccc1)C2=O — 20-fold lower, 27.3 M⁻¹ s⁻¹
- COc1ccc(C(=O)OCN2C(=O)c3ccccc3C2=O)cc1 — 16-fold lower, 33.9 M⁻¹ s⁻¹
- COCN1C(=O)c2ccccc2C1=O — 16-fold lower, 35.3 M⁻¹ s⁻¹
- O=C(OCN1C(=O)c2ccccc2C1=O)c1ccc(Cl)cc1 — 9.9-fold lower, 56.7 M⁻¹ s⁻¹
- O=C(OCN1C(=O)c2ccccc2C1=O)c1ccccc1 — 11-fold lower, 50.4 M⁻¹ s⁻¹
- O=C(OCN1C(=O)c2ccccc2C1=O)c1ccc([N+](=O)[O-])cc1 — 7.3-fold lower, 76.8 M⁻¹ s⁻¹
- CC1(C)S[C@@H]2[C@H](NC(=O)Cc3ccccc3)C(=O)N2[C@H]1C(=O)OCN1C(=O)c2ccccc2C1=O — 8.5-fold lower, 65.6 M⁻¹ s⁻¹
- O=C1c2ccccc2C(=O)N1CCl — 5.3-fold lower, 105.8 M⁻¹ s⁻¹
- O=C1c2ccccc2C(=O)N1CO[N+](=O)[O-] — 7-fold lower, 79.7 M⁻¹ s⁻¹
